Values joined by “and” are separate entries in the source; they are usually repeats but may differ in a detail not shown here. Identical values can stand only once. Peptide text beside a SMILES is read from it.
How the values were obtained:
[1] = blood-brain barrier crossing, anti-TAT immunohistochemistry on coronal brain sections; assay type: in vivo; conditions: C57BL/6 mice, intraperitoneal injection 3 nmoles/g, 24 hours
Experimental: For the immunohistochemistry analyses, mice treated with the peptide were anaesthetized deeply and subjected to transcardial perfusion with 4% paraformaldehyde (prepared in PBS, pH 7.2-7.4), through the use of a peristaltic pump. The fixing liquid was inserted into the blood circulation through the left ventricle and after 10 minutes the brain was isolated. The sample was then post-fixed for 1 hour and 30 minutes at 4°C, then washed with PBS 1X and placed o/n in a 30% sucrose solution. The following day the sample was washed again with PBS 1X cut with the vibratome obtaining coronal sections of 50µm. Then the sections were stained through free-floating immunofluorescence technique. The fluorescence images were acquired using the Zeiss Confocal LSM510 Meta system with 63x objective at a resolution of 1024x1024 pixels. […]
The coronal sections were incubated with a specific antibody for the identification of the MAP2 neurons, and an antibody able to recognize the TAT sequence of HIV-1 present in the CPPs. As shown by the arrows in Figure 6, the presence of a specific signal of the anti-TAT antibody can be identified, which can only be detected in the coronal sections of brain of animals treated with CPPs. […] In the brain of animals only treated with saline solution (Figure 6, panel A), such signal cannot be detected.

[2] = system: dendritic spines of the hippocampal neurons; assay: dendritic spine morphology and density in hippocampus, C57BL/6 mice; assay type: in vivo; conditions: 14 days' treatment
Experimental: (§1) C57/BL6 adult mice were treated for 14 days with daily intraperitoneal injection of saline solution or peptides at a dose of 3 nmol/g (6-10 animals per experimental group). The animals were maintained in an enclosure at 25 ± 2 °C with an alternating light/dark cycle of 12 hours and had free access to water and food in the form of pellets (standard diet).
For the dendritic spine analysis, the protocol used is the one previously described by Kim et al, and envisages the use of DilDye lipophilic tracer (Invitrogen) to allow the dendritic spines to be viewed under the confocal microscope. The analysis of the dimensions and morphology of the spines was performed with ImageJ software.
The spines were classified, based on their morphology, into three different categories: thin, stubby (without a well-defined "neck") and mushroom shaped. To evaluate the possible effect induced by PEP3 on the spine morphology, two animals for each experimental group were perfused after 14 days of treatment and the brain was post-fixed in PFA and cut with a vibratome. To view the dendritic spines the lipophilic tracer DilDye was used. From the images acquired from the confocal microscope the number, length and width of the head of the dendritic spines of the hippocampal neurons were measured.

[3] = body weight and food intake during 14 days' treatment; assay type: in vivo; conditions: C57BL/6 mice, daily intraperitoneal 3 nmol/g
Experimental: as §1
For the entire duration of the treatment, on a daily basis, the weight and food intake of each animal were monitored and recorded, in order to evaluate any changes caused by the treatment. 24 hours after the last injection the mice were anaesthetized, and then the blood was taken through cardiac puncture, whereas the brain and liver of the animal were rapidly dissected to perform biochemical or immunohistological analyses.
The body weight and food intake were monitored and recorded on a daily basis.

[4] = leukogram (white blood cell count) after 14 days' treatment; assay type: in vivo, mice
Experimental: as §1
The blood, collected through cardiac puncture, was analysed with a laser counter (ADVIA 120, Siemens) using specific software for the murine species. From each sample a blood smear was prepared, stained with the May Grünwald-Giemsa method, and used for the morphological analysis of the leukocytes, the red blood cells and the platelet estimate. After the automatic counting of the cells and the preparation of the smear, all the samples were centrifuged and the plasma was transferred into separate test tubes. The analysis of the plasma samples was performed through automatic spectrophotometer (ILAB-300, Instrumentation Laboratory). All the results were compared with the values provided by the company Charles River for mice of the same strain and age.
Except for the basophils and eosinophils, the total count and white blood cell (WBC) differential is lower with respect to the range values in all the animals treated. However, we noticed that the reference range values provided by the company Charles River are particularly high with respect to other values provided for other control groups and in other scientific articles in which the same animal strain is analysed. Justification for these differences found is provided by the pre-analytical factors used by Charles River in determining the different reference ranges (such as the method used, the type of sampling used, etc.). Despite this, the analyses of the data performed both individually and by examining the mean and median values in the different groups, show some differences in the values referring to mice treated with the active peptide with respect to the control mice (Table 2).
The following Table 2 illustrates the results of the white blood cell count. The reference values are provided by Charles River for C57BL mice of 56-70 days.

[5] = individual animal, 14 days, daily intraperitoneal 3 nmol/g

N=C(N)NCCC[C@H](NC(=O)CNC(=O)[C@@H](N)Cc1ccc(O)cc1)C(=O)N[C@@H](CCCCN)C(=O)N[C@@H](CCCCN)C(=O)N[C@@H](CCCNC(=N)N)C(=O)N[C@@H](CCCNC(=N)N)C(=O)N[C@@H](CCC(N)=O)C(=O)N[C@@H](CCCNC(=N)N)C(=O)N[C@@H](CCCNC(=N)N)C(=O)N[C@@H](CCCNC(=N)N)C(=O)NCC(=O)NCC(=O)N[C@@H](CO)C(=O)NCC(=O)N[C@@H](CCC(N)=O)C(=O)N1CCC[C@H]1C(=O)N1CCC[C@H]1C(=O)N[C@@H](CCCNC(=N)N)C(=O)N[C@@H](CCC(N)=O)C(=O)N[C@@H](CCCNC(=N)N)C(=O)N1CCC[C@H]1C(=O)N[C@@H](CCCNC(=N)N)C(=O)NCC(=O)O [PEP3] (H-YGRKKRRQRRRGGSGQPPRQRPRG-OH)
capacity to cross the blood-brain barrier (BBB) [1]: can cross the BBB and penetrate into the neuron cells
density of the dendritic spines [2]: 10.30±1.11 n. of spines/10µm
length of mushroom shaped spines [2]: 0.73±0.02
length of the spines [2]: 0.75±0.02 µm
percentage of mushroom shaped spines [2]: 28.83 ± 2.18%
percentage of stubby spines [2]: 45.25 ± 2.03%
percentage of thin spines [2]: 25.92 ± 1.68%
width of the head of spines [2]: 0.75±0.01 µm
food intake (ratio daily food intake / mean body weight) [3]: 97.09±2.18%
immune / allergic reactions inferred from leukogram ([4]; 14 days' treatment, said not biologically significant): leads to the development of specific immunity and to the possibility of developing possible allergic/hypergic reactions
Basophils ([4]; group mean): 10 µL⁻¹
Eosinophils ([4]; group mean): 90 µL⁻¹
Lymphocytes ([4]; group mean): 4460 µL⁻¹
Monocytes ([4]; group mean): 200 µL⁻¹
Neutrophils ([4]; group mean): 530 µL⁻¹
White blood cells ([4]; group mean): 5290 µL⁻¹
Basophils ([4]; group median): 0 µL⁻¹
Eosinophils ([4]; group median): (-0.08). x10^3/µL
Lymphocytes ([4]; group median): (-4.32). x10^3/µL
Monocytes ([4]; group median): (-0.23). x10^3/µL
Neutrophils ([4]; group median): (-0.54). x10^3/µL
White blood cells ([4]; group median): (-5.21). x10^3/µL
Basophils [4, 5]: 0 µL⁻¹ and 40 µL⁻¹
Eosinophils [4, 5]: 140 µL⁻¹ and 60 µL⁻¹ and 90 µL⁻¹ and 40 µL⁻¹ and 120 µL⁻¹ and 70 µL⁻¹
Lymphocytes [4, 5]: 5740 µL⁻¹ and 2650 µL⁻¹ and 3820 µL⁻¹ and 3720 µL⁻¹ and 4810 µL⁻¹ and 6010 µL⁻¹
Monocytes [4, 5]: 270 µL⁻¹ and 60 µL⁻¹ and 180 µL⁻¹ and 130 µL⁻¹ and 290 µL⁻¹ and 280 µL⁻¹
Neutrophils [4, 5]: 680 µL⁻¹ and 340 µL⁻¹ and 460 µL⁻¹ and 440 µL⁻¹ and 650 µL⁻¹ and 630 µL⁻¹
White blood cells [4, 5]: 6830 µL⁻¹ and 3120 µL⁻¹ and 4550 µL⁻¹ and 4380 µL⁻¹ and 5870 µL⁻¹ and 6990 µL⁻¹
